Tests used:
[1] = molecular target: T1, α1d-adrenoceptor (recombinant) (Homo sapiens, UniProt P25100); test: Radioligand binding, cloned α1d-adrenoceptor ([3H]prazosin); settings: read-out: Affinity for recombinant α1d-adrenoceptor, cloned receptors (Ki)
T1 sequence (P25100 1-572): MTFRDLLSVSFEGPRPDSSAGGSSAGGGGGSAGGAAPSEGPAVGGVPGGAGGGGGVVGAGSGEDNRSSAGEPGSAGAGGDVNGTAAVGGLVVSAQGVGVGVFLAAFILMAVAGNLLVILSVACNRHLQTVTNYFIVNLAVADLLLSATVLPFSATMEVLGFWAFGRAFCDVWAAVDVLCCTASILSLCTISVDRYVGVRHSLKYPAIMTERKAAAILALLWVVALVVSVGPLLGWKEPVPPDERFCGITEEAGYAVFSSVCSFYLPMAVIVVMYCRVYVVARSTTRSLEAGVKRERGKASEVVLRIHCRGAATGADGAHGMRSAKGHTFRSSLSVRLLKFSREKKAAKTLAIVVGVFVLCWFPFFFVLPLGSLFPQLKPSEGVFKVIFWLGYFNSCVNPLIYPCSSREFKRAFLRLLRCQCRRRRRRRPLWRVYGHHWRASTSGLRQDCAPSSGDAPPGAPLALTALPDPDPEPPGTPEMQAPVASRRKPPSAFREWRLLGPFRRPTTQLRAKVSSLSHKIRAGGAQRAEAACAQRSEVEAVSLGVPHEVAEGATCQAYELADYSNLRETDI

α1L adrenoceptor = molecular target: T2, α1L adrenoceptor (Oryctolagus cuniculus, UniProt O02824); test: Functional antagonism of noradrenaline-induced contractions of rabbit aorta pretreated with chloroethylclonidine; type: biochemical; settings: NA-induced contractions of rabbit aorta pretreated with chloroethylclonidine
T2 sequence (O02824 1-466): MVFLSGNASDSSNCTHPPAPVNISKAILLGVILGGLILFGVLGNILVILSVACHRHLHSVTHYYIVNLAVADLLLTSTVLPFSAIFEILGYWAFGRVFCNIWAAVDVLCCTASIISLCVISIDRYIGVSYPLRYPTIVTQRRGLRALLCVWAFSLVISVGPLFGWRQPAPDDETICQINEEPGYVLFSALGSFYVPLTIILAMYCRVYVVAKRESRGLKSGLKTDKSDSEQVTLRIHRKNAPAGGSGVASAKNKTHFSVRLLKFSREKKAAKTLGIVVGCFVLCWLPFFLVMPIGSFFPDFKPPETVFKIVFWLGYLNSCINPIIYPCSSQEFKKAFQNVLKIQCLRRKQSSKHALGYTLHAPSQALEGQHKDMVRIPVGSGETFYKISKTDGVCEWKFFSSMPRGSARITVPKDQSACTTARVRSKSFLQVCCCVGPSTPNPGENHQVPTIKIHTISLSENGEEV
Procedure: Adult male New Zealand rabbits were sacrificed by cervical dislocation. The aorta was removed, placed in Krebs-Henseleit buffer and dissected free of adhering tissue. […] Desmethylimipramine (0.1 μm) and corticosterone (1 μM) to block neuronal and extraneuronal uptake of NA, (±)-propranol (1 μM) to block β adrenoceptors and yohimbine (0.1 μM) to block α2 adrenoceptors, were added to the buffer.
The preparations were allowed to equilibrate for 60 minutes and then primed every thirty minutes with 10 μM NA for three times. The aortic rings were then incubated with the alkylating agent chloroethylclonidine (5×10^−5 M) for 30 minutes and then washed extensively three times (in 0.5 hours) before constructing the NA-concentration/response curve. After washout of NA and re-equilibration of the tissue (45 minutes), the drug to be tested was added and, after 30 minutes, a second NA-cumulative-concentration/response curve constructed.
Each antagonist concentration was tested using 2-3 aortic rings from different rabbits.
Dose ratios (i.e., the ratio between the concentrations of NA required to produce half-maximal response in the presence and in the absence of the test antagonist) were calculated for each concentration of the compounds. The logarithm of these dose ratio-1 was plotted against the logarithm of the compound concentrations (Schild plot) to evaluate the affinity constant Kb.
When only one or two concentrations of the test compounds were utilised, the apparent Kb value was calculated using the formula: Kb=[B]/(DOSE RATIO-1), where B is the antagonist concentration.

[2] = molecular target: T3, 5HT1A-serotoninergic receptor (Homo sapiens, UniProt P08908); test: Radioligand binding, cloned 5-HT1A-serotoninergic receptor in HeLa membranes ([3H]8-OH-DPAT); set-up: expressed in transfected cells; host or cells: HeLa; settings: cloned human 5-HT1A receptor in HeLa membranes, mean Ki, read-out: Affinity for 5-HT1A receptor, cloned receptors (Ki)
T3 sequence (P08908 1-422): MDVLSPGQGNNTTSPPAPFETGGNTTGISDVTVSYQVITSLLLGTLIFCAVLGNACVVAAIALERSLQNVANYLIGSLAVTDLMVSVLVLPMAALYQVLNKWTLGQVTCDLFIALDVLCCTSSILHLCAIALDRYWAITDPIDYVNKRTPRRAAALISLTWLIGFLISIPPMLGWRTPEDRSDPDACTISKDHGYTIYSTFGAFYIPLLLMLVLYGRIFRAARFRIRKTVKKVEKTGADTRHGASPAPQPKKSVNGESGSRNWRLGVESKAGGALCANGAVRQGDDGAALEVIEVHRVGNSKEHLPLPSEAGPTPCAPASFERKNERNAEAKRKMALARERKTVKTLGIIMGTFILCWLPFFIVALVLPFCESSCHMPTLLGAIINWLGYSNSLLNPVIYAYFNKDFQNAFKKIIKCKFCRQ

CCOC(=O)c1oc2c(C(=O)NCCCN3CCN(c4cc(Cl)ccc4OC)CC3)cccc2c(=O)c1C [Example 4, 2-Ethoxycarbonyl-8-{3-[4-(5-chloro-2-methoxyphenyl)-1-piperazinyl]-propylcarbamoyl}-3-methyl-4-oxo-4H-1-benzopyran]
Ki [1]: 2.75 nM
Functional affinity for the α1L adrenoceptor subtype, pKb (α1L adrenoceptor): 8.47
Ki [2]: 15.2 nM

COc1ccc(Cl)cc1N1CCN(CCCNC(=O)c2cccc3c(=O)c(C)c(C(N)=O)oc23)CC1 [Example 1, 2-Carbamoyl-8-{3-[4-(5-chloro-2-methoxyphenyl)-1-piperazinyl]-propylcarbamoyl}-3-methyl-4-oxo-4H-1-benzopyran]
Ki [1]: 57.4 nM
Functional affinity for the α1L adrenoceptor subtype, pKb (α1L adrenoceptor): 8.27
Ki [2]: 17.2 nM

Source: US6403594B1, “Benzopyran derivatives” (Recordati, S.A. Chemical and Pharmaceutical Company, priority 1999, dated 2002)
